These results are taken from patent US5789447A, “Nitric oxide releasing compounds as protective agents in ischemia reperfusion injury” (priority 1995, dated 1998).

“Also recorded” adds a separate entry of the source.

The nature of series [1]: Chemical controls: DEA/NO or NO with hydrogen peroxide. The class given is physicochemical. The conditions noted are these: presence of 1 mM hydrogen peroxide. As for the experimental part: Anaerobic solutions of 1 mM hydrogen peroxide in 10 mM phosphate buffer, pH 7.4, were mixed with 1 mM NO. […] The rate of decomposition of DEA/NO was unaffected by the presence of 1 mM hydrogen peroxide; likewise, hydrogen peroxide was not consumed by DEA/NO or intermediates of the DEA/NO decomposition reaction as measured by the production of I3^- (Hochanadel, J. Phys. Chem., 56, 587-594 (1952)).

The target of series [2] is T1, XO (Bos taurus, UniProt P80457). The series can be described thus: XO activity by superoxide-induced reduction of ferricytochrome c. It counts as biochemical. How it is done: (§1) The activity of XO was monitored in the absence and presence of 1 mM DEA/NO by two different assays. Superoxide-induced reduction of ferricytochrome c to ferrocytochrome c was monitored spectrophotometrically at 550 nm (Fridovich, Handbook of Method for Oxygen Radical Research, pages 213-215 (1985)). The reaction was carried out in a 1 ml volume in aerated phosphate buffer (pH 7.8, 50 mM) containing 50 μM DETAPAC. HX was maintained at 2.5 mM and ferricytochrome c at 20 μM. The reactions were initiated with the addition of XO (final concentration of 0.2 units/ml). The activity of XO in the absence and presence of 1 mM DEA/NO was directly monitored by measuring the production of uric acid spectrophotometrically at 305 nm for 10 min under the same conditions but in the absence of ferricytochrome c. All enzymatic assays and chemical reactions were done at 37° C.
T1 sequence (P80457 whole entry): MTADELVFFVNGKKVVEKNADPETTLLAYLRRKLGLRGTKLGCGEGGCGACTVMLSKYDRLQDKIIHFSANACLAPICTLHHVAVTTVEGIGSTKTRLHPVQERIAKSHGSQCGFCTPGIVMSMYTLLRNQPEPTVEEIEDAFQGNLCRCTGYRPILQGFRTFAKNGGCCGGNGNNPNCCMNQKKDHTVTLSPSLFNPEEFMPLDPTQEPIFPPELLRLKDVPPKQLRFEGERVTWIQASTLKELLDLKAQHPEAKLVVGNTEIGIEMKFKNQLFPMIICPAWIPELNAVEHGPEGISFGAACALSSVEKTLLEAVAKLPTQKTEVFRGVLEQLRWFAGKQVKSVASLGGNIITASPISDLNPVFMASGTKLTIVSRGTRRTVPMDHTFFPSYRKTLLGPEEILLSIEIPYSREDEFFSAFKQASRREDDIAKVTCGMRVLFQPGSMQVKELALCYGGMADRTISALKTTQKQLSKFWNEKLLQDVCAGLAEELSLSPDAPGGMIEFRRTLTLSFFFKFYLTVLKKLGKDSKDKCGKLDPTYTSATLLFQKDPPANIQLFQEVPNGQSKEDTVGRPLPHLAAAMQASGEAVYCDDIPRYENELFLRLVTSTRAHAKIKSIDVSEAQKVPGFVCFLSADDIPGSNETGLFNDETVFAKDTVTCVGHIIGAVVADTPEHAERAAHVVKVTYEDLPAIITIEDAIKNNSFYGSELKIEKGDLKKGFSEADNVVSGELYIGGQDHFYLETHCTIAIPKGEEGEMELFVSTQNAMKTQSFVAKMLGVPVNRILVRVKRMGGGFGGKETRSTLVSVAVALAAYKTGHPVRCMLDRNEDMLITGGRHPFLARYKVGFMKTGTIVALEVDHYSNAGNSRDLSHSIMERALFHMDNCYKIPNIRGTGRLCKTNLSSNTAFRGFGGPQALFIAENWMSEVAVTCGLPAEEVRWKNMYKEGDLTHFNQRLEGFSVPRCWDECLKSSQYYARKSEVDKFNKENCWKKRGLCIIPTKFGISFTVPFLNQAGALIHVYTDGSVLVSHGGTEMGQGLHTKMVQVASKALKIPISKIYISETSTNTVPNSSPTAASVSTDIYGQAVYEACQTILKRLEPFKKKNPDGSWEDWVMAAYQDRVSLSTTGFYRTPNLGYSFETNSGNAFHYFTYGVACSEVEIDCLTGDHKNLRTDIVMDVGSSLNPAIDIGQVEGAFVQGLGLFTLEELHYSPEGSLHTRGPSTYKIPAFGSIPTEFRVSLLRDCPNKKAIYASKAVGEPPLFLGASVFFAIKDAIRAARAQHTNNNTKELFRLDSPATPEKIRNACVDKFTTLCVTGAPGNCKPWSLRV

Series [3] has as its system Chinese hamster V79 lung fibroblasts. Kind of series: V79 clonogenic survival, hypoxanthine/xanthine oxidase (HX/XO) cytotoxicity. As for the experimental part:
Chinese hamster V79 lung fibroblasts were cultured in F12 medium supplemented with 10% fetal calf serum and antibiotics. Cell survival was assessed by clonogenic assay with 85-95% plating efficiency. Stock cultures of exponentially growing cells were trypsinized, rinsed, and plated (7×10^5 cells/dish) into a number of 100 cm^2 petri dishes and incubated 16 hr at 37° C. prior to experimental protocols.
It has been shown that exposure of V79 cells to hydrogen peroxide results in dose-dependent cytotoxicity (Mitchell et al., supra).
HX and XO were purchased from Boehringer Co. (Indianapolis, Ind.). Nitrite, diethylamine, sulfinamide, diethylenetriaminepentaacetic acid (DETAPAC) and N-(1-naphthyl)ethylenediaminedihydrogenchloride (NEDD) were purchased from Aldrich (Milwaukee, Wis.). Cytosine-β-D-arabinofuranoside and ferricytochrome c were purchased from Sigma (St. Louis, Mo.). DEA/NO and SPER/NO were synthesized as previously described (Maragos et al., (1991), supra).
Exponentially growing cultures of Chinese hamster V79 fibroblasts were exposed to either HX/XO (final concentration of HX was 0.5 mM; 0.08 units/ml XO were used) for various amounts of time (FIG. 1A) or to various concentrations of hydrogen peroxide for one hour (FIG. 1B). […] Additionally, 1 mM DEA/NO was added to medium in the absence of cells, incubated at 37° C. for 1 hr or 16 hrs, and then added just prior to the addition of hydrogen peroxide to evaluate the effects of DEA/NO which had released NO. After treatment, cell monolayers were rinsed twice with phosphate-buffered saline (PBS), trypsinized, counted and plated in triplicate for macroscopic colony formation. Each dose determination was plated in triplicate and experiments were repeated a minimum of two times. Plates were incubated for 7 days, after which colonies were fixed with methanol/acetic acid (3:1), stained with crystal violet, and counted. Colonies containing more than 50 cells were scored.

For series [4], the system named is ventral mesencephalic cells. Kind of series: [3H]dopamine uptake after hydrogen peroxide or HX/XO exposure. The class given is cell-based, Sprague Dawley rats. As for the experimental part:
(§2) The ventral tegmental mesencephalon was dissected from 14 day old embryos (precisely timed pregnant Sprague Dawley rats; Zivic-Miller, Allison Park, Pa.) under sterile conditions and mechanically dissociated into complete culture medium. The culture medium consisted of a 1:1 mixture of modified minimum essential medium and nutrient mixture F-12 supplemented with 6 mg/ml D-gluose, 2 mM glutamine, 0.5 U/ml penicillin G, 0.5 mg/ml streptomycin (all from Gibco, Grand Island, N.Y.) and 15% equine serum (Hyclone, Logan, Utah). Cells were plated into multiwell plates that were previously coated with poly-D-lysine (15 μg/ml) and laminin (10 μg/ml) at a density of 40,000 cells/cm^2 (Costar). The cells were maintained for 5-7 days at 37° C. in an atmosphere of 95% air and 5% CO2 saturated with H2 O. On the fifth day of culture 1 μM cytosine-β-D-arabinofuranoside was added to inhibit glial cell growth.
Uptake of dopanine by dopaminergic neurons was assayed as follows. The cells in each well were washed three times with 1 ml PBS containing 6 mg/ml glucose and thereafter Dulbecco's modified essential medium (Quality Biological, Inc., Farmingham, Mass.) containing 6 mg/ml D-glucose, 50 μM ascorbic acid, and 5×10^-8 M [^3 H]dopamine (NEN, Boston, Mass.; specific activity of […]) was added and incubated for 15 min at 37° C. [^3 H]dopamine uptake was stopped by aspirating the incubation solution and washing the cells three times with ice-cold PBS containing 6 mg/ml D-glucose. The cells were removed by washing the wells with an equal volume of 0.2N NaOH and 0.2N HCl containing 0.02% Triton X-100. The residual intracellular radioactivity in the cells was determined by scintillation spectroscopy.
Accordingly, ventral mesencephalic cell cultures were exposed to 100 μM H2 O2 for 1 hr in the presence and absence of 100 μM DEA/NO and evaluated for their ability to take up dopamine.
In a separate study, cells were cultured for 7 days and then exposed to 50 or 100 μM hydrogen peroxide for 60 min or to 0.04 units/ml HX/XO for 5 or 10 min in the absence or presence of 100 μM DEA/NO. The cells were washed with PBS containing 6 g/l D-glucose, culture medium was added, and the cells were incubated for 18 hr. The ability of the cells (6 wells of 450,000 cells/well per group) to take up ^3 [H]-dopamine was measured. These cells were exposed to ten times less hydrogen peroxide or HX/XO than the V79 cells described above.

The subject of series [5] is Chinese hamster V79 lung fibroblasts. Kind of series: V79 clonogenic survival, hydrogen peroxide cytotoxicity. It counts as cell-based. The text has this: Colonies containing more than 50 cells were scored.
Series [6] deals with T1, XO. The series can be described thus: XO activity by uric acid production at 305 nm. The class given is biochemical. How it is done:
as §1

The test system of a further series is mesencephalic neurons. Kind of series: Morphology of mesencephalic neurons (neurites and somas). The class given is cell-based, Sprague Dawley rats. How it is done:
as §2
When cells were exposed to hydrogen peroxide for 1 hr, varicosities formed in the neurites and somas swelled. Exposure to HX/XO for as short as 5 min elicited similar morphological changes in mesencephalic neurons.

Another series deals with neuronal cell death. The settings on record: Lafon-Cazal et al.; cited from earlier work.
The next series deals with NMDA receptor. The conditions noted are these: U.S. Pat. No. 5,234,956; cited from earlier work.
In series [7] the test system is Leukocyte-endothelial cell adhesive interactions. The conditions noted are these: postcapillary venules; Kubes et al. 1991; cited from earlier work.
The next series relates to platelet aggregation. The settings on record: Rubanyi et al.; cited from earlier work.
The test system of series [8] is Primary neuronal cell cultures. The conditions noted are these: as high as 1 mM; cited from earlier work.
Another series concerns lung tissue. The settings on record: high concentrations in the gas phase; cited from earlier work.
Series [9] relates to endothelial cell monolayers. The conditions noted are these: Radomski et al.; cited from earlier work.
For series [10] the following is noted: Kanner et al.; cited from earlier work.
For series [11] the following is noted: Saran et al. 1990; cited from earlier work.
Where [12] appears, read: 100 μM with hydrogen peroxide or HX/XO.

Turning to `CCN(CC)/[N+]([O-])=N/[O-].[Na+]` [DEA/NO], the “rate of decomposition / rate of formation of NO” value in series [1] is given as “not altered; also recorded: unaffected”. For the same compound, the “inhibition of XO activity, production of superoxide (cytochrome c reduction)” value against XO [2] (1 mM, preincubated with HX/XO) is recorded as “did not inhibit the activity of XO”. The “SOD sensitive ferricytochrome c reduction” value at XO [2] (presence of DEA/NO) is “quenching; also recorded: inhibited”. In addition, the “protection against HX/XO-induced cell killing” value in series [3] (0.1 mM) was “marginal protection”; in series [3] (1 mM) it was “significantly protected against cell killing”. Besides, the “[3H] Dopamine Uptake” value in series [4] (100 μM DEA/NO with 50 μM H2O2, 60 min) was determined as 2.8 ± 0.11 pmol/well/15 min; in series [4] (100 μM DEA/NO with 100 μM H2O2, 60 min) it was 2.6 ± 0.22 pmol/well/15 min; in series [4] (100 μM DEA/NO with 0.04 U/ml HX/XO, 5 min), 2.6 ± 0.15 pmol/well/15 min; in [4] (100 μM DEA/NO with 0.04 U/ml HX/XO, 10 min), 2.3 ± 0.10 pmol/well/15 min; in series [4] (100 μM DEA/NO, no addition (None)), 2.7 ± 0.11 pmol/well/15 min. Also, in [4] (setting [12]), the “protection of dopamine uptake” value is recorded as “complete protection”. Also, the “retained function (dopamine uptake)” value in series [4] (hydrogen peroxide in presence of DEA/NO (100 μM, 1 hr), FIG. 3) is recorded as roughly 100%. The “protection against hydrogen peroxide cytotoxicity” value in [5] (1 mM, added just prior to hydrogen peroxide, 1 hr exposure) is reported as “nearly complete protection”; in [5] (1 mM, allowed to release NO for 1 hr prior to hydrogen peroxide), “only modest protection”. For the same compound, the “effect on hydrogen peroxide cytotoxicity” value in series [5] (1 mM, incubated 16 hr in medium prior to hydrogen peroxide) is on record as “enhanced the cytotoxicity of hydrogen peroxide”. Moreover, the “effect of treatment after hydrogen peroxide” value in series [5] (1 hr hydrogen peroxide followed by 1 hr treatment with 1 mM) is on record as “did not treat oxygen free radical mediated tissue damage”. The “inhibition of XO activity, uric acid production” value against XO [6] (1 mM, preincubated with HX/XO) was “did not inhibit the activity of XO”. Further, the “uric acid production (UV 305 nm) / XO substrate turnover” value on XO [6] (presence of DEA/NO) was “not inhibited; also recorded: nor affect XO substrate turnover”. Moreover, the morphological changes result in the series with mesencephalic neurons (100 μM alone, 1 hr) is listed as “failed to cause morphological changes”. Besides, the “abnormalities in the neurites and somas” value with mesencephalic neurons (setting [12]) is “did not demonstrate abnormalities in the neurites and somas”.
In the case of `CC1(C)CCC=[N+]1[O-]` [DMPO], the “reduction of neuronal cell death” value in the series on neuronal cell death was “more efficiently than the nitric oxide synthase inhibitor L-N-nitroarginine”.
Consider `O=[N+]([O-])OCC(CO[N+](=O)[O-])O[N+](=O)[O-]` [nitroglycerin], for which, in the series on NMDA receptor, the “NMDA receptor-mediated neuronal damage” value is listed as “reduce NMDA receptor-mediated neuronal damage”.
As for nitric oxide [NO], in series [7], the “leukocyte-endothelial cell adhesive interactions” value was “inhibited”. In the series with platelet aggregation, the platelet aggregation entry is “block platelet aggregation”. Further, the “adverse effects in primary neuronal cell cultures” value in [8] was “no adverse effects”. Also, the lung tissue damage result in the series on lung tissue is reported as “damages lung tissue”. Besides, the “platelet adhesion to endothelial cell monolayers” value in [9] is “reduce platelet adhesion to endothelial cell monolayers”. In addition, the “quenching of Fenton-type oxidation” value in series [10] is “could quench Fenton-type oxidation”. The “reaction rate constant for NO and O2” value in series [11] is listed as 5.6×10^7 M^-1 S^-1.
